{"source": "patent US8409166B2", "about": "“Method for pressure mediated selective delivery of therapeutic substances and cannula” (The United States of America as represented by the …, priority 1998, dated 2013)", "key": {"[1]": {"system": "intrahepatic tight junctions", "assay": "Constant pressure retrograde biliary infusion in mice (flow rate, resistance, paracellular leakage)", "conditions": "for Ave Counts (paracellular leakage): Cholestatic 04 day mice", "excerpt": "FIG. 35 is a diagram of a working example of a system for constant-pressure intralumenal delivery. […] A working model was regulated using an adaptation of a Cole-Palmer pressure controller. Infusion fluid from the reservoir flows through capillary glass tubes 224 on its way to an infusion line 226. Flow rates may then be determined by tracking air bubbles 228 in the capillary glass tubes 224 with a ruler 229. A pressure sensor 230 detects the pressure of the infusion fluid at a location near the infusion line 226.\nTo set up the system, fluid was added to the reservoir, and the system was rinsed and filled with fluid. The infusion line 226 was then surgically placed into the animal's organ. […] By adjusting the controller setting the desired pressure could be obtained at the pressure sensor, which was kept at the same height (z=0) as the animal. The reading at the pressure sensor was thus equal to the applied pressure (the pump pressure) plus the pressure head (the pressure increase due to the change in height between the top of the liquid level in the reservoir and the height of the infusion line). The infusion line was kept at the same height as the pressure sensor and the animal on the operating table. Alternate systems could be of course be adapted in which a constant pressure is maintained at the pressure sensor and not at the top of the Reservoir. This would be most important when a large volume of fluid is infused.\nThe flow rate of infusion fluid was experimentally recorded in the following way: the cross sectional area of the bubble tube was determined by injecting a known volume of water (from syringe 232) into a measured length of the bubble tube. The cross sectional area was 0.0233 cm^2 (0.35 cc in 15 cm). When the flow started, an air bubble was slowly injected into the infusion fluid flow. The bubble then traveled down the bubble tube. At the end of the tube, the bubble would rise up into the bubble trap 234 and displace an equal volume of liquid. For each bubble 25 time points were recorded, on 1-cm intervals of ruler 229. The time versus distance that the bubble had traveled could be plotted and the slope of this line was the velocity of the bubble. Multiplying the slope by the cross sectional area of the bubble tube gave the average flow rate of the infusion fluid. This method of flow rate measurement is a working and experimental model for the purpose of illustration. In practice, flow rates may also be determined by ultrasonic or other methods known to those of skill in the art.\nConstant pressure infusion was evaluated in mice using the retrograde biliary infusion setup described previously. The constant pressure device was substituted for the microinfusion pump. […] Infusion flow rates were recorded using the bubble tube method described above. Blood samples were obtained and evaluated as described above.\nSolutes evaluated included sucrose (molecular weight 370), inulin (molecular weight 5,200), and Dextran (molecular weight 70,000)."}, "[2]": {"system": "interhepatocyte tight junctions", "assay": "Retrograde biliary infusion of lanthanum chloride, electron microscopy of intrahepatic distribution", "type": "in vivo, mice", "conditions": "720 μl of 5 mM at 2 or 8 μl/second", "protocol": "Movement of fluid from the intralumenal space may conceivably occur either directly across physically opened tight junctions or indirectly by altered rates of transepithilial transcytosis. […] The ability of retrograde biliary infusion to disrupt tight junctions was evaluated by qualitative ultrastructural examination of the intrahepatic distribution of lanthanum chloride, a heavy metal normally impermeant to structurally intact tight junctions.\nAnimals were infused retrograde with either 5 mM lanthanum chloride (Sigma) or 0.9% NaCl vehicle. Three infusions of 240 μl volume were administered per animal at a rate of 2 or 8 μl/second, with a 10 second pause between infusions. Freshly removed tissue was fixed overnight in 2% glutaraldehyde in 0.2 M cacodylate buffer. Following standard processing and embedding, 0.5 micrometer thick sections were stained with uranyl acetate and lead citrate. Sections were then examined using a Philips 201 Electron Microscope."}, "[3]": {"system": "urinary bladder epithelial cell tight junctions", "assay": "Intralumenal delivery to the rabbit urinary bladder (electron and fluorescent microscopy)", "type": "in vivo, Dutch Belted Rabbits", "conditions": "5 mM, 10 minutes", "excerpt": "As an experimental model to mimic retrourethral delivery, male Dutch Belted Rabbits (1-2 Kg BW) had PE-50 tubing placed in the lumen of each […] and advanced so that the tips were within the lumen of the urinary bladder. One ureteral catheter was connected to a pressure transducer and used for recording intralumenal pressure. The other ureteral catheter was connected to a microinfusion pump. Microvascular clips were placed on the ureters to prevent retrograde reflux. The urethra was occluded using a vascular loop. 5 mM Lanthanum Chloride was infused so that the intralumenal pressure was either 25 mm Hg or 50 mm Hg.\nTissues were removed 10 minutes later and processed for electron microscopy. […] Following the administration of 200 nm fluorescent latex microspheres at 50 mm-[…] intralumenal pressure, the urinary bladder was removed and processed for fresh-frozen sections."}, "[4]": {"conditions": "constant pressure retrograde biliary infusion"}}, "data": [{"molecule": "OC[C@H]1O[C@@](CO)(O[C@H]2O[C@H](CO)[C@@H](O)[C@H](O)[C@H]2O)[C@@H](O)[C@@H]1O", "note": "[[14C]-sucrose]", "values": [{"measurement": "appearance in systemic bloodstream", "setting": "[1]; mouse, in vivo", "value": "detected in the systemic bloodstream"}]}, {"molecule": "[Cl][La]([Cl])[Cl]", "note": "[lanthanum chloride]", "values": [{"measurement": "electron dense deposits at bile ducts", "setting": "[2]", "value": "found within bile ducts but not in their adjacent subepithelial tissue compartments"}, {"measurement": "electron dense deposits at canaliculi and subepithelial compartments", "setting": "[2]", "value": "within biliary canaliculi, interhepatocyte cell spaces, and the perisinusoidal Space of Disse"}, {"measurement": "electron microscopy finding in urinary bladder", "setting": "[3]; intralumenal pressure 25 mm Hg", "value": "electron dense deposits were detected in the intercellular spaces between epithelial cells"}, {"measurement": "electron microscopy finding in urinary bladder", "setting": "[3]; intralumenal pressure 50 mm Hg", "value": "some evidence of patchy epithelial denudation"}]}, {"molecule": "Dextran", "values": [{"measurement": "appearance in systemic bloodstream", "setting": "[1]; [4]", "value": "detected in the systemic bloodstream"}]}, {"molecule": "[14C]-inulin", "values": [{"measurement": "Ave Counts (paracellular leakage)", "setting": "[1]; 10 mmHg", "value": 27}, {"measurement": "Ave Counts (paracellular leakage)", "setting": "[1]; 20 mmHg", "value": 2534}, {"measurement": "Ave Counts (paracellular leakage)", "setting": "[1]; 40 mmHg", "value": 20134}, {"measurement": "appearance in systemic bloodstream", "setting": "[1]; [4]", "value": "detected in the systemic bloodstream"}]}]}
